# Results taken from patent publication US20100317685A1, “N-PHENYL-IMIDAZO[1,2-a]PYRIDINE-2-CARBOXAMIDE DERIVATIVES, THEIR PREPARATION AND THEIR THERAPEUTIC APPLICATION” (SANOFI-AVENTIS, priority 2008, published 2010).
# pEC50: −log10 of the molar value.
# Target: T1, mouse Nurr1 receptor (Mus musculus, UniProt Q06219)
# T1 construct: a cell line (N2A) endogenously expressing the mouse Nurr1 receptor; host or cells: Neuro-2A (N2A) mouse neuroblastoma cells stably transfected with 8NBRE-luciferase
# T1 sequence (Q06219 whole entry): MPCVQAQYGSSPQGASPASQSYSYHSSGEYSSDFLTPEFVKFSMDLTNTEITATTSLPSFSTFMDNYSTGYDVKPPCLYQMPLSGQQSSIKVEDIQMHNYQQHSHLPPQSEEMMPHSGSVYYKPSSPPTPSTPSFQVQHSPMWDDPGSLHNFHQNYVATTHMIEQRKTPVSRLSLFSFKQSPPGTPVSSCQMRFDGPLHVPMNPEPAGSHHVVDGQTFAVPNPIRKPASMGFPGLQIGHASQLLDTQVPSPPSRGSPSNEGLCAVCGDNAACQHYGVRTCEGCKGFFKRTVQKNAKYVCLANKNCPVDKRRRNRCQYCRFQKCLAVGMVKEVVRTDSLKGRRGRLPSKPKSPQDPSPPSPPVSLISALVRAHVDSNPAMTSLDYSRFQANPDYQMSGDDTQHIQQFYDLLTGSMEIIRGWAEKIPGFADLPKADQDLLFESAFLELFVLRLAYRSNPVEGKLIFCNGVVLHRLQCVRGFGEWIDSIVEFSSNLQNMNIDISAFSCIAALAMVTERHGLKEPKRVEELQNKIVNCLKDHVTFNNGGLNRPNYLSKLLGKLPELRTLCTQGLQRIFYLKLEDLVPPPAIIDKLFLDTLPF
# Assay: In vitro activity on N2A cells (NBRE-luciferase reporter)
# Type: cell-based
# Conditions: N2A-8NBRE cells, 24 hours incubation
# Procedure: Evaluation of the In Vitro Activity on N2A Cells
# The activity of the compounds according to the invention was evaluated on a cell line (N2A) endogenously expressing the mouse Nurr1 receptor and stably transfected with the NOT binding response element (NBRE) coupled to the luciferase reporter gene. The EC50 values are between 0.01 and 1000 nM. The assays were carried out according to the procedure described below.
# The Neuro-2A cell line comes from a standard commercial source (ATCC). The Neuro-2A clone was obtained, from a spontaneous tumour originating from an A albino mouse strain, by R. J Klebe et al. This Neuro-2A line is subsequently stably transfected with 8NBRE-luciferase. The N2A-8NBRE cells are cultured until confluence in 75 cm^2 culture flasks containing DMEM supplemented with 10% of foetal calf serum, 4.5 g/l of glucose and 0.4 mg/ml of geneticin. After a week of culture, the cells are recovered with 0.25% trypsin for 30 seconds and then resuspended in DMEM without phenol red, containing 4.5 g/l of glucose and 10% of Hyclone delipidized serum, and deposited into transparent-bottom 96-well white plates. The cells are deposited at a rate of 60 000 per well in 75 μl for 24 hours before the addition of the products. […] The plates are subsequently measured in a luminescence counter for microplates after having been sealed with an adhesive film. […]
row,pEC50,Compound
1,7.57,"N#Cc1cccc(NC(=O)c2cn3cc(-c4cccc(CO)c4)ccc3n2)c1 [Compound 5, N-(3-cyanophenyl)-6-[3-(hydroxymethyl)phenyl]imidazo[1,2-a]pyridine-2-carboxamide]"
2,9.40,"N#Cc1c(F)cccc1NC(=O)c1cn2cc(-c3cccc(CO)c3)ccc2n1 [Compound 8, N-(2-cyano-3-fluorophenyl)-6-[3-(hydroxymethyl)phenyl]imidazo[1,2-a]pyridine-2-carboxamide]"
